Experimental data taken from patent US9376420B2 (YUHAN CORPORATION, priority 2012, dated 2016).

Target: T1, human LXRβ (Homo sapiens, UniProt P55055)
T1 construct: expressed in transfected cells; host or cells: HEK293 cells (ATCC CRL-1573), transient transfection with pFA-hLXRβ/GAL4 and pUAS
T1 sequence (P55055 222-460 limits assumed): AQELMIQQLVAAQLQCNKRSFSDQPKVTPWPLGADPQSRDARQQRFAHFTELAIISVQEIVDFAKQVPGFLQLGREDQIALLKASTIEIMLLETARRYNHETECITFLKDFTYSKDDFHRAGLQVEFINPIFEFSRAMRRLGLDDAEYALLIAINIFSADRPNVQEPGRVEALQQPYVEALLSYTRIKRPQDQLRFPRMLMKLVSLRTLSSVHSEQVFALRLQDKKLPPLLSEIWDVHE
Assay: Assay for Transcriptional Activity of LXRβ (GAL4-hLXRβ LBD luciferase reporter, transient transfection)
Format: cell-based
Conditions: HEK293 cells transfected with pFA-hLXRβ/GAL4 and pUAS, 24 hours; for Emax: fold value in comparison with the control (DMSO-treated group); for EC50: increase of transcriptional activity of LXRβ, average of three independent tests
Method in brief: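 EC50 values, averaged over three independent runs, come from a four-parameter fit of 9-point half-log curves spanning 0.01–50 μM. Luciferase output was read in lysed HEK293 cells 24 h after dosing at 37 °C, following transient transfection with a GAL4-human LXRβ LBD fusion plus GAL4-responsive reporter.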

Emax | EC50 | Compound
57 fold | 519 nM | OC(C1=NN(c2ccccc2Cl)C(c2ccc(-c3cnc4ccccc4c3)cc2)C1)(C(F)(F)F)C(F)(F)F (stereo not shown) [Example 259, 1-(2-chloro-phenyl)-5-(4-quinolin-3-yl-phenyl)-3-[di-(trifluoromethyl)-hydroxy-methyl]-4,5-dihydro-1H-pyrazole]
72 fold | 1470 nM | CCOc1cccc(-c2ccc(C3CC(C(O)(C(F)(F)F)C(F)(F)F)=NN3c3ccccc3F)cc2)c1 (stereo not shown) [Example 336, 5-(3′-ethoxy-biphenyl-4-yl)-1-(2-fluoro-phenyl)-3-[di-(trifluoromethyl)-hydroxy-methyl]-4,5-dihydro-1H-pyrazole]
73 fold | 1020 nM | CSc1cccc(-c2ccnc(C3CC(C(F)(F)C(F)(F)F)=NN3c3ccc(F)cc3F)c2)c1 (stereo not shown) [Example 172, 1-(2,4-difluoro-phenyl)-5-[4-(3-methylsulfanyl-phenyl)-pyridin-2-yl]-3-pentafluoroethyl-4,5-dihydro-1H-pyrazole]
59 fold | 1490 nM | O=S(=O)(C1CC1)N1CCN(c2ccc(C3CC(C(O)(C(F)(F)F)C(F)(F)F)=NN3c3ccccc3Cl)cc2)CC1 (stereo not shown) [Example 315, 1-(2-chloro-phenyl)-5-[4-(4-cyclopropanesulfonyl-piperazin-1-yl)-phenyl]-3-[di-(trifluoromethyl)-hydroxy-methyl]-4,5-dihydro-1H-pyrazole]
23 fold | 1020 nM | CC(C)C(=O)N1CC=C(c2ccc(C3CC(C(O)(C(F)(F)F)C(F)(F)F)=NN3c3ccc(F)cc3F)cc2)CC1 (stereo not shown) [Example 402, 1-(2,4-difluoro-phenyl)-5-[4-(1-isobutyryl-1,2,3,6-tetrahydropyridin-4-yl)-phenyl]-3-[di-(trifluoromethyl)-hydroxy-methyl]-4,5-dihydro-1H-pyrazole]
44 fold | 993 nM | CC(O)c1ccc(-c2cccc(C3CC(C(F)(F)C(F)(F)F)=NN3c3ccccc3Cl)c2)cc1 (stereo not shown) [Example 108, 1-(2-chloro-phenyl)-5-[4′-(1-hydroxy-ethyl)-biphenyl-3-yl]-3-pentafluoroethyl-4,5-dihydro-1H-pyrazole]
68 fold | 731 nM | N#Cc1cncc(-c2ccc(C3CC(C(O)(C(F)(F)F)C(F)(F)F)=NN3c3ccccc3Cl)cc2)c1 (stereo not shown) [Example 278, 1-(2-chloro-phenyl)-5-[4-(5-cyano-pyridin-3-yl)-phenyl]-3-[di-(trifluoromethyl)-hydroxy-methyl]-4,5-dihydro-1H-pyrazole]
90 fold | 1110 nM | CC(C)(C)OC(=O)N1CC=C(c2ccc(C3CC(C(O)(C(F)(F)F)C(F)(F)F)=NN3c3ccccc3Cl)s2)CC1 (stereo not shown) [Example 416, 1-(2-chloro-phenyl)-5-[5-(1-BOC-1,2,3,6-tetrahydropyridin-4-yl)-thiophen-2-yl]-3-[di-(trifluoromethyl)-hydroxy-methyl]-4,5-dihydro-1H-pyrazole]
87 fold | 850 nM | CSc1cccc(-c2ccc(C3CC(C(O)(C(F)(F)F)C(F)(F)F)=NN3c3ccccc3Cl)c(F)c2)c1 (stereo not shown) [Example 338, 1-(2-chloro-phenyl)-5-(3-fluoro-3′-methylsulfanyl-biphenyl-4-yl)-3-[di-(trifluoromethyl)-hydroxy-methyl]-4,5-dihydro-1H-pyrazole]
53 fold | 727 nM | CNCCCS(=O)(=O)c1cccc(-c2ccc(C3CC(C(O)(C(F)(F)F)C(F)(F)F)=NN3c3ccc(F)cc3F)cc2)c1 (stereo not shown) [Example 412, 1-(2,4-difluoro-phenyl)-5-{3′-[3-(methyl-amino)-propane-1-sulfonyl]-biphenyl-4-yl}-3-[di-(trifluoromethyl)-hydroxy-methyl]-4,5-dihydro-1H-pyrazole]
118 fold | 513 nM | CS(=O)(=O)N1CC=C(c2ccnc(C3CC(C(F)(F)C(F)(F)F)=NN3c3ccc(F)cc3F)c2)CC1 (stereo not shown) [Example 180, 1-(2,4-difluoro-phenyl)-5-[4-(1-methanesulfonyl-1,2,3,6-tetrahydropyridin-4-yl)-pyridin-2-yl]-3-pentafluoroethyl-4,5-dihydro-1H-pyrazole]
